Source: US12559474B2, “Triazine derivatives having virus replication inhibitory activity and pharmaceutical composition comprising the same” (priority 2021, dated 2026)
Where two headings read alike, the source gives them in different places.

Key:
SARS-CoV-2 = test: microbe, parasite or virus in culture; assay type: cell-based; conditions: Severe acute respiratory syndrome coronavirus 2, VeroE6/TMPRSS2, 72 h, 50% SARS-CoV-2 infected cell death inhibitory concentration, VeroE6/TMPRSS2 cells, 3 days culture
SARS-CoV-2 3CL protease = SARS-CoV-2 3CL protease (Severe acute respiratory syndrome coronavirus 2, UniProt P0DTD1); test: biochemical; conditions: 50% SARS-CoV-2 3CL protease inhibitory concentration, read-out: IC50

| Compound | EC50 (SARS-CoV-2; class symbols) | IC50 (SARS-CoV-2 3CL protease; given as class symbols) | EC50 (SARS-CoV-2; CellTiter-Glo 2.0) | IC50 (SARS-CoV-2 3CL protease; RapidFire MS) |
| --- | --- | --- | --- | --- |
| Cn1cc2cc(Nc3nc(=O)n(-c4cncc(C5CC5)c4)c(=O)n3Cc3ccc(F)c(C#N)c3)c(Cl)cc2n1 [II-0261] | < 1000 nM | < 100 nM | – | – |
| Cn1cnc(Cn2c(=O)nc(Nc3cc4sc(NCC(F)F)nc4cc3Cl)n(Cc3cc(Cl)c(F)cc3F)c2=O)n1 [II-0262] | 1000 to 10000 nM | < 100 nM | – | – |
| CNc1nc2cc(F)c(Nc3nc(=O)n(-c4cncc(Cl)c4)c(=O)n3Cc3ccc(F)c(C#N)c3)cc2s1 [II-0263] | 1000 to 10000 nM | < 100 nM | – | – |
| Cc1cncc(-n2c(=O)nc(Nc3ccc4nn(C)c(C)c4c3)n(Cc3ccc(F)c(C#N)c3)c2=O)c1 [II-0264] | 1000 to 10000 nM | < 100 nM | – | – |
| Cc1cncc(-n2c(=O)nc(Nc3cc4cn(C)nc4cc3Cl)n(Cc3ccc(F)c(C#N)c3)c2=O)c1F [II-0265] | < 1000 nM | < 100 nM | – | – |
| Cc1c2cc(Nc3nc(=O)n(-c4cncc(Cl)c4)c(=O)n3Cc3ccc(F)c(C#N)c3)ccc2nn1C [II-0267] | 1000 to 10000 nM | < 100 nM | – | – |
| Cn1cnc(Cn2c(=O)nc(Nc3cc4cn(CC5CC5)nc4cc3Cl)n(Cc3cc(Cl)c(F)cn3)c2=O)n1 [II-0269] | 1000 to 10000 nM | < 100 nM | – | – |
| Cc1cncc(-n2c(=O)nc(Nc3cc4cn(C)nc4cc3Cl)n(Cc3cc(F)c(F)c(F)c3)c2=O)c1F [II-0270] | 1000 to 10000 nM | < 100 nM | – | – |
| COCc1cncc(-n2c(=O)nc(Nc3ccc4c(c3)CCO4)n(Cc3ccc(F)c(C#N)c3)c2=O)c1 [II-0271] | 1000 to 10000 nM | < 100 nM | – | – |
| COc1ccc(Nc2nc(=O)n(-c3cncc(C4CC4)c3)c(=O)n2Cc2cc(F)c(F)c(F)c2)cc1 [II-0272] | – | – | 1590 nM | 180 nM |
| Cn1cc2cc(Nc3nc(=O)n(-c4cncc(C(F)(F)F)c4)c(=O)n3Cc3cc(F)c(F)c(F)c3)c(Cl)cc2n1 [II-0273] | – | – | 6600 nM | 360 nM |
| COC(=O)c1cncc(-n2c(=O)nc(Nc3cc4cn(C)nc4cc3Cl)n(Cc3cc(F)c(F)c(F)c3)c2=O)c1 [II-0275] | – | – | 7280 nM | 360 nM |
| Cc1cncc(-n2c(=O)nc(Nc3ccc4nn(CC(F)F)cc4c3)n(Cc3cc(C#N)c(F)cc3C)c2=O)c1 [II-0278] | – | – | 170 nM | 3.1 nM |
| Cc1cncc(-n2c(=O)nc(Nc3cc4c(cc3Cl)nc3n4CCN3)n(Cc3cc(Cl)c(F)cc3F)c2=O)c1 [II-0279] | 1000 to 10000 nM | < 100 nM | – | – |
| Cc1cncc(-n2c(=O)nc(Nc3cc4cn(CC(=O)N(C)C)nc4cc3Cl)n(Cc3cc(F)c(F)c(F)c3)c2=O)c1 [II-0281] | 1000 to 10000 nM | < 100 nM | – | – |
| Cn1cc2cc(Nc3nc(=O)n(-c4cncc(Cl)c4)c(=O)n3Cc3cc(C#N)c(F)cc3Cl)ccc2n1 [II-0282] | – | – | 260 nM | 8.8 nM |
| CNc1nc2cc(F)c(Nc3nc(=O)n(-c4cncc(C)c4)c(=O)n3Cc3ccc(F)c(C#N)c3)cc2s1 [II-0283] | < 1000 nM | < 100 nM | – | – |
| Cn1cc2cc(Nc3nc(=O)n(-c4cncc(Cl)c4)c(=O)n3Cc3cc(F)c(F)c(C#N)c3)ccc2n1 [II-0284] | – | – | 184 nM | 9.2 nM |
| CC(C)n1cc2cc(Nc3nc(=O)n(Cc4ncn(C)n4)c(=O)n3Cc3cc(F)c(F)cc3F)c(Cl)cc2n1 [II-0285] | < 1000 nM | < 100 nM | – | – |
| Cn1cnc(Cn2c(=O)nc(Nc3cc4cn(C)nc4cc3Cl)n(Cc3ccc(F)c(C#N)c3)c2=O)n1 [II-0286] | 1000 to 10000 nM | < 100 nM | – | – |
| Cc1nc2cc(Cl)c(Nc3nc(=O)n(Cc4ncn(C)n4)c(=O)n3Cc3cc(F)c(F)cc3F)cc2s1 [II-0287] | 1000 to 10000 nM | < 100 nM | – | – |
| Cn1cc2cc(Nc3nc(=O)n(-c4cncc(Cl)c4)c(=O)n3Cc3cc(F)c(F)cc3F)ccc2n1 [II-0288] | – | – | 2400 nM | 99 nM |
| Cc1cncc(-n2c(=O)nc(Nc3cc(-c4ccc[nH]c4=O)sc3C)n(Cc3cc(F)c(F)c(F)c3)c2=O)c1 [II-0289] | – | – | 16000 nM | 240 nM |
| Cc1cncc(-n2c(=O)nc(Nc3ccc4nn(C)cc4c3)n(Cc3cc(C#N)c(F)cc3C)c2=O)c1 [II-0290] | – | – | 210 nM | 3.5 nM |
| CNc1nc2cc(F)c(Nc3nc(=O)n(-c4cncc(C)c4)c(=O)n3Cc3cc(F)c(F)c(F)c3)cc2s1 [II-0291] | 1000 to 10000 nM | < 100 nM | – | – |
| CNc1nc2cc(F)c(Nc3nc(=O)n(-c4cncc(C)c4)c(=O)n3Cc3cc(C#N)ccc3Cl)cc2s1 [II-0292] | – | – | 434 nM | 3.9 nM |
| O=c1nc(Nc2cc3cn(CCO)nc3cc2Cl)n(Cc2cc(F)c(F)c(Cl)c2)c(=O)n1Cc1ncccn1 [II-0294] | 1000 to 10000 nM | < 100 nM | – | – |
| Cc1cncc(-n2c(=O)nc(Nc3ccc4nc(NCC(F)(F)F)sc4c3)n(Cc3cc(F)c(F)c(C#N)c3)c2=O)c1 [II-0295] | 1000 to 10000 nM | < 100 nM | – | – |
| Cn1cc2cc(Nc3nc(=O)n(Cc4ncccn4)c(=O)n3Cc3cc(F)c(F)c(Cl)c3)c(Cl)cc2n1 [II-0296] | < 1000 nM | < 100 nM | – | – |
